Measured values: patent US11166959B2, “Isofuranone compounds useful as HPK1 inhibitors” (BRISTOL-MYERS SQUIBB COMPANY, priority 2017, dated 2021)

Key:
[1] = molecular target: T1, HPK1 (Homo sapiens, UniProt Q92918); experiment: HPK1 Inhibition Assay (kinase reaction, Caliper capillary electrophoresis); assay type: biochemical; conditions: for IC50: 0.625 nM HPK1, 22 μM ATP, 11 concentrations, read-out: HPK1 IC50; for IRAK4/HPK1 Ratio: ratio of the IRAK4 IC50 value to the HPK1 IC50 value
T1 construct: purchased SignalChem M23-11G
T1 sequence (Q92918 1-346 limits assumed): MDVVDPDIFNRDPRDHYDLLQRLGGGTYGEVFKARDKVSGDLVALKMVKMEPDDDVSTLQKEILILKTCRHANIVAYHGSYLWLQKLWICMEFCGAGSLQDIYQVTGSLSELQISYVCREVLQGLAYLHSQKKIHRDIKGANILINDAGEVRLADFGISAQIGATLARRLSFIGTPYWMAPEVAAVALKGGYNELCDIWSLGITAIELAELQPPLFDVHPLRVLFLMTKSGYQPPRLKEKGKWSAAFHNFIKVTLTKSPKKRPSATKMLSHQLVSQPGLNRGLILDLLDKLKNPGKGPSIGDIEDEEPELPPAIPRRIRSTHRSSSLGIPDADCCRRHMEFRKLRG
Method in brief: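 Kinase reactions ran 3 h and were stopped with 1 mM EDTA, with enzyme level and time set for at most 20-30% peptide substrate conversion. Phosphorylated and unphosphorylated peptide were separated by capillary electrophoresis to measure conversion. IC50 derived from 11 compound concentrations.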

[2] = molecular target: T2, IRAK4 (Homo sapiens, UniProt Q9NWZ3); experiment: IRAK4 Inhibition Assay (kinase reaction, Caliper capillary electrophoresis); assay type: biochemical; conditions: 500 μM ATP, 11 concentrations
T2 construct: 1 nM IRAK4 (160-460); purchased SignalChem M24016
T2 sequence (Q9NWZ3 160-460): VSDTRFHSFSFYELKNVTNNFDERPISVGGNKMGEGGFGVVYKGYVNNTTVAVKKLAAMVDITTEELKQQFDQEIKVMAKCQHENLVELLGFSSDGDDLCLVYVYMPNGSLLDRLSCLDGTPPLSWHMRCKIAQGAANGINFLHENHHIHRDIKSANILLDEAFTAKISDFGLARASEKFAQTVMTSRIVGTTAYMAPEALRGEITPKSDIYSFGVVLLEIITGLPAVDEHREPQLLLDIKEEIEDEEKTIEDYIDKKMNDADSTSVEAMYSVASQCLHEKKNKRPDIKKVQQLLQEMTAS

Row | Compound | IC50 [1] [nM] | IRAK4/HPK1 Ratio [1] | IC50 [2] [nM]
1 | CC(NC(=O)c1cnc(Nc2ccc3c(c2)C(C)(C)OC3=O)nc1N[C@H](CO)c1ccccc1)c1ccccc1 (stereo partly drawn) [Example 15, 2-[(3,3-dimethyl-1-oxo-1,3-dihydro-2-benzofuran-5-yl)amino]-4-{[(1S)-2-hydroxy-1-phenylethyl]amino}-N-(1-phenylethyl)pyrimidine-5-carboxamide] | 50 to 250 | B (B=10 to 50) | 250 to 1000
2 | CC(C)(CCCCO)c1noc(-c2cnc(Nc3ccc4c(c3)C(C)(C)OC4=O)nc2N[C@H](CO)c2ccccc2)n1 [Example 37, 5-[(4-{[(1S)-2-hydroxy-1-phenylethyl]amino}-5-[3-(6-hydroxy-2-methylhexan-2-yl)-1,2,4-oxadiazol-5-yl]pyrimidin-2-yl)amino]-3,3-dimethyl-1,3-dihydro-2-benzofuran-1-one] | < 50 | C (C=>50) | 250 to 1000
3 | CN(C)C12CC(c3noc(-c4cnc(Nc5ccc6c(c5)C(C)(C)OC6=O)nc4N[C@H](CO)c4ccccc4)n3)(C1)C2 [Example 48, 5-[(5-{3-[3-(dimethylamino)bicyclo[1.1.1]pentan-1-yl]-1,2,4-oxadiazol-5-yl}-4-{[(1S)-2-hydroxy-1-phenylethyl]amino}pyrimidin-2-yl)amino]-3,3-dimethyl-1,3-dihydro-2-benzofuran-1-one] | < 50 | C (C=>50) | 250 to 1000
4 | CC1(C)OC(=O)c2ccc(Nc3ncc(C(=O)NC4CCN(Cc5ccccc5)C4)c(N[C@H](CO)c4ccccc4)n3)cc21 (stereo partly drawn) [Example 22, N-(1-benzylpyrrolidin-3-yl)-2-[(3,3-dimethyl-1-oxo-1,3-dihydro-2-benzofuran-5-yl)amino]-4-{[(1S)-2-hydroxy-1-phenylethyl]amino}pyrimidine-5-carboxamide] | < 50 | C (C=>50) | 250 to 1000

Second part, the compound after the results:

Row | IC50 [1] [nM] | IRAK4/HPK1 Ratio [1] | IC50 [2] [nM] | Compound
5 | < 50 | C (C=>50) | 50 to 250 | CC(C)(CO)c1noc(-c2cnc(Nc3ccc4c(c3)C(C)(C)OC4=O)nc2N[C@H](CO)c2ccccc2)n1 [Example 41, (S)-5-((4-((2-hydroxy-1-phenylethyl)amino)-5-(3-(1-hydroxy-2-methylpropan-2-yl)-1,2,4-oxadiazol-5-yl)pyrimidin-2-yl)amino)-3,3-dimethylisobenzofuran-1(3H)-one]
6 | < 50 | B (B=10 to 50) | 250 to 1000 | CC(C)(C)NC(=O)c1cnc(Nc2ccc3c(c2)C(C)(C)OC3=O)nc1N[C@H](CO)c1ccccc1 [Example 11, N-tert-butyl-2-[(3,3-dimethyl-1-oxo-1,3-dihydro-2-benzofuran-5-yl)amino]-4-{[(1S)-2-hydroxy-1-phenylethyl]amino}pyrimidine-5-carboxamide]
7 | < 50 | C (C=>50) | 250 to 1000 | CC1(C)OC(=O)c2ccc(Nc3ncc(-c4nc(-c5cccnc5)no4)c(N[C@H](CO)c4ccccc4)n3)cc21 [Example 43, 5-[(4-{[(1S)-2-hydroxy-1-phenylethyl]amino}-5-[3-(pyridin-3-yl)-1,2,4-oxadiazol-5-yl]pyrimidin-2-yl)amino]-3,3-dimethyl-1,3-dihydro-2-benzofuran-1-one]
8 | < 50 | C (C=>50) | 250 to 1000 | CC1(C)OC(=O)c2ccc(Nc3ncc(-c4nc(-c5ccccn5)no4)c(N[C@H](CO)c4ccccc4)n3)cc21 [Example 42, 5-[(4-{[(1S)-2-hydroxy-1-phenylethyl]amino}-5-[3-(pyridin-2-yl)-1,2,4-oxadiazol-5-yl]pyrimidin-2-yl)amino]-3,3-dimethyl-1,3-dihydro-2-benzofuran-1-one]
9 | < 50 | C (C=>50) | 50 to 250 | CC1(C)OC(=O)c2ccc(Nc3ncc(-c4nc(N5CCOCC5)no4)c(N[C@H](CO)c4ccccc4)n3)cc21 [Example 31, 5-[(4-{[(1S)-2-hydroxy-1-phenylethyl]amino}-5-[3-(morpholin-4-yl)-1,2,4-oxadiazol-5-yl]pyrimidin-2-yl)amino]-3,3-dimethyl-1,3-dihydro-2-benzofuran-1-one]
